Test results taken from patent publication US20220031684A1, “PROPHYLACTIC EFFICACY OF SEROTONIN 4 RECEPTOR AGONISTS AGAINST STRESS” (THE TRUSTEES OF COLUMBIA UNIVERSITY IN THE CITY OF NEW YORK, priority 2019, published 2022).
Where a name gives a salt, the structure may show the parent alone.

Tests used:
Assay type in all cases: in vivo
BALB/cJRj mice [1] = test: Novelty suppressed feeding (NSF), acute anxiolytic-like effect; settings: for lag for feeding in the NSF: single dose 1.5 mg/kg, 72 hours after the injection
Procedure: (§1) RS67333 (1.5 mg/kg, i.p.), diazepam (1.5 mg/kg, i.p.), fluoxetine (18 mg/kg, i.p.) were injected 45 min before testing in the Elevated Plus Maze (EPM), the Novelty Suppressed Feeding (NSF) or the Open Field (OF) in three independent cohorts of male BALB/cJRj mice.
(§2) To ensure the selectivity of the anxiolytic-like effects of RS67333, in a new cohort of male BALB/cJRj mice, GR125487 (1.0 mg/kg, i.p.) dissolved in 0.9% NaCl solution, was injected 15 minutes before RS67333 administration (1.5 mg/kg, i.p.). EPM or NSF occurred 45 min after RS67333 administration (A-S1). Behavioral consequences of the co-administration of GR125487+RS67333 were compared to RS67333 alone, diazepam (1.5 mg/kg, i.p.) fluoxetine (18 mg/kg, i.p.) and vehicle groups (0.9% saline solution, i.p.).
(§3) For mPFC drug infusion, two bilateral cannulae (75 μm-diameter silica capillary tubing inserted in 27G stainless steel catheter) were implanted in the mPFC [stereotaxic coordinates in mm from bregma: A=+2.10, L=±0.50, V=−2.60, A, anterior; L, lateral; and V, ventral, according to (A-S10)] under anesthesia (chloral hydrate, 400 mg/kg, i.p.). […] Diazepam (1.5 mg/kg) was used as a positive control.
The NSF is a conflict test that elicits competing motivations: the drive to eat and the fear of venturing into the center of a brightly lit arena. The latency to begin eating is used as an index of anxiety/depression-like behavior, because classical anxiolytic drugs as well as chronic antidepressants decrease this measure. The NSF test was carried out during a 10 min period as previously described (A-S12). Briefly, the testing apparatus consisted of a plastic box (50×50×20 cm), the floor of which was covered with approximately 2 cm of wooden bedding. Twenty-four hours prior to behavioral testing, all food was removed from the home cage. At the time of testing, a single pellet of food (regular chow) was placed on a white paper platform positioned in the center of the box. Each animal was placed in a corner of the box, and a stopwatch was immediately started. The latency to eat (defined as the mouse sitting on its haunches and biting the pellet with the use of forepaws) was timed. Immediately afterwards, the animal was transferred to its home cage, and the amount of food consumed by the mouse in the subsequent 5 min was measured, serving as a control for change in appetite as a possible confounding factor.

BALB/cJRj mice [2] = test: Elevated plus maze (EPM), acute anxiolytic-like effect; settings: single dose 1.5 mg/kg; 24 hours after the injection
BALB/cJRj mice [3] = test: as above
Procedure: as §1, §2, §3
In a new cohort of male BALB/cJRj mice, p-CPA was administered twice daily (at 0900 and 1700 h) for 3 consecutive days. RS67333 ([…]) and diazepam ([…]) were then intra-mPFC administered 24 h after the final p-CPA administration and behavioral test (EPM) occurred 45 minutes after local infusion.
(§4) The EPM is a widely used behavioral assay for rodents and it has been validated to assess the anti-anxiety effects of pharmacological agents (A-S11). This test was performed as described by (A-S1). The maze is a plus-cross-shaped apparatus, with two open arms and two arms closed by walls linked by a central platform 50 cm above the floor. Mice were individually put in the center of the maze facing an open arm and were allowed to explore the maze during 5 min for the behavioral consequences of an acute systemic administration or mPFC infusion and during 6 min for the optogenetic experiments. The time spent in and the numbers of entries into the open arms were used as an anxiety index. All parameters were measured using a videotracker (EPM3C, Bioseb, Vitrolles, France).

BALB/cJRj mice [4] = test: EPM with optogenetic inhibition of mPFC terminals in the DRN (CaMKII-ArchT); settings: for time, percent time spent in the open arms (EPM), light OFF / inhibition of the drug-induced increase in open-arm time (EPM) during 3-min green light illumination: intra-mPFC RS67333 0.5 pg/side or diazepam 1.5 pg/side; for inhibition of the drug-induced increase in open-arm time (EPM) during 3-min green light illumination: light ON
Procedure: as §4
To target opsin expression selectively to cortical glutamatergic terminals in the DRN, AAV5-CaMKIIα-ChR2-enhanced yellow fluorescent protein (eYFP), AAV5-CaMKII-ArchT-green fluorescent protein (GFP) or AAV5-CaMKII-eYFP, obtained from Karl Deisseroth and Ed Boyden (UNC Vector Core, NC, USA) were bilaterally injected into the mPFC (in mm from bregma, A=+2.10, L=±0.50, V=−2.60). Mice injected with AAV5-CamKII-eYFP were used as control.
BALB/cJRj mice were surgically implanted with fiber optics targeted to the DRN (in mm from bregma, A=−4.50, L=+1.20, V=−4.0, angle 15°). A […] core, 0.37 NA fiber optic (ThorLabs, ˜10-12 and 15-16 mW for ChR2 and Arch-T, respectively, at the tip of optic) was used for optical stimulation via a patch cable connected to either a 473 or 532 nm laser diode (OEM laser systems, USA) as previously described (A-S15). For behavioral experiments, AAV5-CaMKIIα-ChR2-eYFP mice and their controls received a 10 Hz stimulation, 20 ms pulses, over a 3-minute period whereas a green light was delivered continuously to AAV5-CaMKII-ArchT-GFP throughout the 3 min testing period. Similar doses of RS67333 (locally in the mPFC at […] or at 1.5 mg/kg, i.p.) and diazepam (locally in the mPFC at […] or at 1.5 mg/kg, i.p.) were infused in the mPFC or administered i.p. The stimulation or the inhibition of mPFC projections in the DRN occurred simultaneously to the behavioral paradigms.

BALB/cJRj mice [5] = test: Splash Test after single dose; settings: single systemic dose 1.5 mg/kg, 45 minutes before test
Procedure: Having shown that RS 67333 was provided with prophylactic properties, we subsequently sought to gain knowledge of this molecule in the long term, i.e. to find out whether the anxiolytic response brought about by RS 67333 is sustainable over time. In order to achieve this, the BALB/cJRj mice were systemically injected with a single dose of RS 67333 (1.5 mg/kg) or diazepam (1.5 mg/kg), 45 minutes before performing the Splash Test. The following day, the mice underwent the EPM without having received another dose of RS, and then at the open field 24 hours later, and, finally, to NSF 24 hours after the open field (FIG. 15A).

[6] = CaMKII-ArchT-mPFC injected mice, systemic RS67333 1.5 mg/kg or diazepam 1.5 mg/kg
[7] = CamKII-ArchT mice, intra-mPFC infusion

Row | Compound | latency to feed (NSF) vs vehicle (BALB/cJRj mice [1]; intra-mPFC infusion of RS67333 45 min before testing) | latency to feed (NSF) vs vehicle (BALB/cJRj mice [1]; male BALB/cJRj, i.p. 45 min before testing, RS67333 1.5, diazepam 1.5, fluoxetine 18 mg/kg) | lag for feeding in the NSF (BALB/cJRj mice [1]) | anxiolytic effects in the EPM (BALB/cJRj mice [2]) | time and percent time spent in the open arms (EPM) vs vehicle (BALB/cJRj mice [3]; intra-mPFC infusion 45 min before testing, RS67333 0.5 pg/side (1 pg), diazepam 1.5 pg/side, HCl) | time and percent time spent in the open arms (EPM) vs vehicle (BALB/cJRj mice [3]; male BALB/cJRj, i.p. 45 min before testing, RS67333 1.5 mg/kg, diazepam 1.5 mg/kg) | decrease in time spent in the open arms (EPM), light ON vs light OFF (BALB/cJRj mice [4]; [6]) | time, percent time spent in the open arms (EPM), light OFF (BALB/cJRj mice [4]; CamKII-ArchT mice) | inhibition of the drug-induced increase in open-arm time (EPM) during 3-min green light illumination (BALB/cJRj mice [4]; CamKII-ArchT mice) | grooming time (Splash Test) (BALB/cJRj mice [5]) | number of grooming episodes (Splash Test) (BALB/cJRj mice [5]) | latency to feed (NSF) vs vehicle (BALB/cJRj mice [1]; male BALB/cJRj, i.p. 45 min before testing, RS67333 1.5, diazepam 1.5, fluoxetine 18 mg/kg, hydrochloride) | ratio of ambulatory distance in the open arms divided by total distance (EPM) vs vehicle (BALB/cJRj mice [3]; i.p. 45 min before testing, RS67333 1.5 mg/kg, diazepam 1.5 mg/kg) | time and percent time spent in the open arms (EPM) vs vehicle (BALB/cJRj mice [3]; intra-mPFC infusion 45 min before testing, RS67333 0.5 pg/side (1 pg), diazepam 1.5 pg/side) | time and percent time spent in the open arms (EPM) vs vehicle (BALB/cJRj mice [3]; male BALB/cJRj, i.p. 45 min before testing, RS67333 1.5 mg/kg, diazepam 1.5 mg/kg, hydrochloride) | drug-induced increase in time, percent time in open arms and ratio open arms/total distance (EPM) in 5-HT-depleted p-CPA mice (BALB/cJRj mice [3]; p-CPA pre-treatment 3 days, intra-mPFC RS67333 0.5 pg/side or diazepam 1.5 pg/side) | time, percent time in open arms and ratio open arms/total distance (EPM), light OFF vs vehicle (BALB/cJRj mice [4]; [6]) | drug-induced increase of ratio open arms/total distance (EPM), light ON (BALB/cJRj mice [4]; [7]) | ratio of ambulatory distance in open arms divided by total distance (EPM), light OFF vs controls (BALB/cJRj mice [4]; [7])
1 | CCCCN1CCC(CCC(=O)c2cc(Cl)c(N)cc2OC)CC1.Cl [RS-67,333, 1-(4-amino-5-chloro-2-methoxyphenyl)-3-[1(n-butyl)-4-piperidinyl]-1-propanone HCl] | decreased latency to feed | decreased the latency to feed | reduced the lag for feeding | have not identified the anxiolytic effects expected | significantly increased time and percent time spent in the open arms | increased | 24% | increased significantly time | 70±8% | increased the grooming time | without affecting the number of episodes |  |  |  |  |  |  |  | 
2 | CN1C(=O)CN=C(c2ccccc2)c2cc(Cl)ccc21 [diazepam, Diazepam hydrochloride] |  |  | have not been able to observe any long-term activity | have not been able to observe any long-term activity |  |  | 17% | increased significantly time | 85±5% | not identify any effect in the Splash Test |  | decreased the latency to feed | significantly increased | increased time, percent time spent in the open arms | significantly increased time and percent time spent in the open arms | abolished | increased time, percent time spent in open arms | blocked | increased the ratio
